Measured values: patent publication US11660293B2, “Substituted 2-azabicyclo[3.1.1]heptane and 2-azabicyclo[3.2.1]octane derivatives as orexin receptor antagonists” (Chronos Therapeutics Limited, priority 2017, dated 2023)
pKi: −log10 of the molar value.

Tests used:
[1] = molecular target: T1, human Orexin type 2 receptors (Homo sapiens (Human), UniProt O43614); assay: Intracellular calcium measurement (FLIPR), antagonism of Orexin-A at EC80 in CHO-hOX2 cells
[2] = molecular target: T2, human Orexin type 1 receptors (Homo sapiens (Human), UniProt O43613); assay: Intracellular calcium measurement (FLIPR), antagonism of Orexin-A at EC80 in CHO-hOX1 cells
[3] = molecular target: T1, human Orexin type 2 receptors; assay: Scintillation Proximity Assay (SPA) binding assay, [3H]EMPA displacement, HEK-hOX2 membranes; conditions: Table 2, [3H]EMPA 2 nM
[4] = molecular target: T2, human Orexin type 1 receptors; assay: Scintillation Proximity Assay (SPA) binding assay, [3H]SB-674042 displacement, CHO-hOX1 membranes; conditions: Table 2, [3H]SB-674042 2 nM

T2 sequence (O43613 whole entry): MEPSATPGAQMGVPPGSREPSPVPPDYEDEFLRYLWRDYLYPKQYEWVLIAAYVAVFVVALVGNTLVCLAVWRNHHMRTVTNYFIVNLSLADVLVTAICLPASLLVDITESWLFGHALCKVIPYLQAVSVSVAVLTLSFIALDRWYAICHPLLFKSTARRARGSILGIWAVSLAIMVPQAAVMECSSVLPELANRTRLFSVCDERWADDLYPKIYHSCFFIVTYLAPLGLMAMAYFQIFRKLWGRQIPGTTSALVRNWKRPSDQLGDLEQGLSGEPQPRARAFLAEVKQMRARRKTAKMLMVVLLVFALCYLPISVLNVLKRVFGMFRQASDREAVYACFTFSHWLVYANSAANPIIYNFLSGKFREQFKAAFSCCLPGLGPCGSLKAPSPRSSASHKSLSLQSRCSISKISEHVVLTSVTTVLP
T1 sequence (O43614 whole entry): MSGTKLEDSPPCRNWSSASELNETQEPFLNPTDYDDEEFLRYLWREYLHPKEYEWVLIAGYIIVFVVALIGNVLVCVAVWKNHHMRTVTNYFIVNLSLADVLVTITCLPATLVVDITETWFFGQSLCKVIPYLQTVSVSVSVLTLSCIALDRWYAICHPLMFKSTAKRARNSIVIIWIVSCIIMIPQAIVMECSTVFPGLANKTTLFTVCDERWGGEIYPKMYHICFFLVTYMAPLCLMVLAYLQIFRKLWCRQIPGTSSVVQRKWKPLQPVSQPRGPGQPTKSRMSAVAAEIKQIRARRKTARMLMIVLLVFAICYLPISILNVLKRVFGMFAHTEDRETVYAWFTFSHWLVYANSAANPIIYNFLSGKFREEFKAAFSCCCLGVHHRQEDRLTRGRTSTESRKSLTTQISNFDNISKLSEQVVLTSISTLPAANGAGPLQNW

| pKi [1] | pKi [2] | SMILES | OX2 pKi (SPA binding) [3] | OX1 pKi (SPA binding) [4] |
| --- | --- | --- | --- | --- |
| 6.55 | 8.50 | Cc1nc(C(=O)N2C3CC(C3)C(C)C2COc2ccc(F)cc2)c(-c2ccccc2)s1 (mixture of isomers) [Example 64, CIS/TRANS 3-(4-fluorophenoxymethyl)-4-methyl-2-(2-methyl-5-phenyl-1,3-thiazole-4-carbonyl)-2-azabicyclo[3.1.1]heptane] |  |  |
| 6.53 | 7.89 | Cc1ccc(-c2ncccn2)c(C(=O)N2C3CC(C3)C(C)C2COc2ccc(F)cc2)c1 (mixture of isomers) [Example 69, CIS/TRANS 3-(4-fluorophenoxymethyl)-4-methyl-2-[5-methyl-2-(pyrimidin-2-yl)benzoyl]-2-azabicyclo[3.1.1]heptane] |  |  |
| < 6.00 | 7.66 | Cc1nc(C(=O)N2C3CC(C3)C(C)C2COc2ccc(F)cn2)c(-c2ccccc2)s1 (mixture of isomers) [Example 77, CIS/TRANS 3-{[(5-fluoropyridin-2-yl)oxy]methyl}-4-methyl-2-(2-methyl-5-phenyl-1,3-thiazole-4-carbonyl)-2-azabicyclo[3.1.1]heptane] |  |  |
| 6.63 | 7.45 | Cc1ccc(-c2ncccn2)c(C(=O)N2C3CC(C3)C(C)C2COc2ccc(F)cn2)n1 (mixture of isomers) [Example 78, CIS/TRANS 3-{[(5-fluoropyridin-2-yl)oxy]methyl}-4-methyl-2-[6-methyl-3-(pyrimidin-2-yl)pyridine-2-carbonyl]-2-azabicyclo[3.1.1]heptane] |  |  |
| 7.33 | 8.46 | Cc1nc(C(=O)N2C3CC(C3)C(C)C2COc2nccc3ccccc23)c(-c2ccccc2)s1 (mixture of isomers) [Example 83] |  |  |
| 5.73 | 7.12 | Cc1nc(C(=O)N2C3CC(C3)C(C)C2COc2cnc3ccc(Cl)cc3n2)c(-c2ccccc2)s1 (mixture of isomers) [Example 84, CIS/TRANS 7-chloro-2-{[4-methyl-2-(2-methyl-5-phenyl-1,3-thiazole-4-carbonyl)-2-azabicyclo[3.1.1]heptan-3-yl]methoxy}quinoxaline] |  |  |
| 5.98 | 8.20 | Cc1nc(C(=O)N2C3CC(C3)C(C)C2COc2cc3ccccc3cn2)c(-c2ccccc2)s1 (mixture of isomers) [Example 85, CIS/TRANS 3-{[4-methyl-2-(2-methyl-5-phenyl-1,3-thiazole-4-carbonyl)-2-azabicyclo[3.1.1]heptan-3-yl]methoxy}isoquinoline] |  |  |
| 6.79 | 8.24 | Cc1ccc(-c2nccs2)c(C(=O)N2C(COc3ccc(F)cc3)CC3CC2C3)n1 (racemic) [Example 4] |  |  |
| 6.85 | 8.15 | Cc1ccc(-c2nccs2)c(C(=O)N2C(COc3ccc(F)cc3)CC3CC2C3)c1 (racemic) [Example 7] |  |  |
| 6.46 | 7.83 | Cc1ccc(-n2nccn2)c(C(=O)N2C(COc3ccc(F)cc3)CC3CC2C3)c1 (racemic) [Example 10] |  |  |
| 6.77 | 8.11 | Cc1ccc(-c2ncccn2)c(C(=O)N2C(COc3ccc(F)cc3)CC3CC2C3)n1 (racemic) [Example 13] |  |  |
| 6.27 | 7.54 | Cc1ccc(-c2ncccn2)c(C(=O)N2C(COc3ccc(F)cc3)CC3CC2C3)c1 (racemic) [Example 16] |  |  |
| 6.68 | 7.52 | Cc1ccc(-c2nccs2)c(C(=O)N2C(COc3ccc(F)cn3)CC3CC2C3)c1 (racemic) [Example 25] |  |  |
| 6.29 | 7.14 | Cc1ccc(-c2ncccn2)c(C(=O)N2C(COc3ccc(Cl)cn3)CC3CC2C3)c1 (racemic) [Example 32] |  |  |
| 6.20 | 7.13 | Cc1ccc(-c2ncccn2)c(C(=O)N2C(COc3ccc(C(F)(F)F)cn3)CC3CC2C3)c1 (racemic) [Example 35] |  |  |
| 6.65 | 7.65 | Cc1ccc(-c2ncccn2)c(C(=O)N2C(CCOc3ccc(F)cc3)CC3CC2C3)c1 (racemic) [Example 41] |  |  |
| 7.03 | 8.29 | Cc1ccc(-c2nccs2)c(C(=O)N2C(COc3ccc(F)cc3)CC3CC2C3)n1 (single isomer, unassigned) [Example 6, (3S or 3R) 3-(4-fluorophenoxymethyl)-2-{[6-methyl-3-(1,3-thiazol-2-yl)pyridin-2-yl]carbonyl}-2-azabicyclo[3.1.1]heptane] |  |  |
| 7.10 | 8.40 | Cc1ccc(-c2nccs2)c(C(=O)N2C(COc3ccc(F)cc3)CC3CC2C3)c1 (single isomer, unassigned) [Example 9, (3S or 3R) 3-(4-fluorophenoxymethyl)-2-{[5-methyl-2-(1,3-thiazol-2-yl)phenyl]carbonyl}-2-azabicyclo[3.1.1]heptane] |  |  |

| pKi [1] | pKi [2] | SMILES | OX2 pKi (SPA binding) [3] | OX1 pKi (SPA binding) [4] |
| --- | --- | --- | --- | --- |
| 5.98 | 7.56 | Cc1ccc(-n2nccn2)c(C(=O)N2C(COc3ccc(F)cc3)CC3CC2C3)c1 (single isomer, unassigned) [Example 12, (3S or 3R) 3-(4-fluorophenoxymethyl)-2-{[5-methyl-2-(2H-1,2,3-triazol-2-yl)phenyl]carbonyl}-2-azabicyclo[3.1.1]heptane] |  |  |
| 7.28 | 8.39 | Cc1ccc(-c2ncccn2)c(C(=O)N2C(COc3ccc(F)cc3)CC3CC2C3)n1 (single isomer, unassigned) [Example 15, (3S or 3R) 3-(4-fluorophenoxymethyl)-2-{[6-methyl-3-(pyrimidin-2-yl)pyridin-2-yl]carbonyl}-2-azabicyclo[3.1.1]heptane] |  |  |
| 6.45 | 7.82 | Cc1ccc(-c2ncccn2)c(C(=O)N2C(COc3ccc(F)cc3)CC3CC2C3)c1 (single isomer, unassigned) [Example 17, (3S or 3R) 3-(4-fluorophenoxymethyl)-2-{[5-methyl-2-(pyrimidin-2-yl)phenyl]carbonyl}-2-azabicyclo[3.1.1]heptane] |  |  |
|  | 7.64 | Cc1ccc(-c2nccs2)c(C(=O)N2C(COc3ccc(Cl)cc3)CC3CC2C3)c1 (centres unmarked) [Example 20] |  |  |
|  |  | Cc1ccc(-n2nccn2)c(C(=O)N2C3CC(C3)[C@@H](C)C2CNc2nc3cccnc3s2)n1 (stereo partly drawn) [Example 184, cis-N-({4-methyl-2-[6-methyl-3-(2H-1,2,3-triaozl-2-yl)pyridine-2-carbonyl]-2-azabicyclo[3.1.1]heptan-3-yl}methyl)-[1,3]thiazolo[5,4-b]pyridin-2-amine] | 5.07 | 8.08 |
|  |  | Cc1ccc(-c2nccs2)c(C(=O)N2C3CC(C3)[C@@H](C)C2CNc2ccc(F)cc2)c1 (stereo partly drawn) [Example 202, cis-4-fluoro-N-({4-methyl-2-[5-methyl-2-(1,3-thiazol-2-yl)benzoyl]-2-azabicyclo[3.1.1]heptan-3-yl}methyl)aniline] | 6.02 | 6.71 |
|  |  | C[C@@H]1C2CC(C2)N(C(=O)c2cc(C#N)ccc2-n2nccn2)C1CNc1nc2cccnc2s1 (stereo partly drawn) [Example 231, cis-3-{4-methyl-3-[({[1,3]thiazolo[5,4-b]pyridin-2-yl}amino)methyl]-2-azabicyclo[3.1.1]heptane-2-carbonyl}-4-(2H-1,2,3-triazol-2-yl)benzonitrile] | 5.21 | 8.2 |
|  |  | C[C@@H]1C2CC(C2)N(C(=O)c2cc(Cl)ccc2-n2nccn2)C1CNc1ncc(C(F)(F)F)cn1 (stereo partly drawn) [Example 239, cis-N-({2-[5-chloro-2-(2H-1,2,3-triazol-2-yl)benzoyl]-4-methyl-2-azabicyclo[3.1.1]heptan-3-yl}methyl)-5-(trifluoromethyl)pyrimidin-2-amine] | 5.51 | 8.04 |
|  |  | C[C@@H]1C2CC(C2)N(C(=O)c2cc(Cl)ccc2-n2nccn2)C1CNc1ccc(C(F)(F)F)nn1 (stereo partly drawn) [Example 247, cis-N-({2-[5-chloro-2-(2H-1,2,3-triazol-2-yl)benzoyl]-4-methyl-2-azabicyclo[3.1.1]heptan-3-yl}methyl)-6-(trifluoromethyl)pyridazin-3-amine] | 4.88 | 6.74 |
|  |  | C[C@@H]1C2CC(C2)N(C(=O)c2cc(F)ccc2-n2nccn2)C1CNc1ncc(C(F)(F)F)cn1 (some centres unmarked) [Example 251] | 4.69 | 7.65 |
|  |  | C[C@@H]1C2CC(C2)N(C(=O)c2ccc(F)cc2-n2nccn2)C1CNc1cnc(C(F)(F)F)cn1 (some centres unmarked) [Example 252] | 4.95 | 7.19 |
|  |  | C[C@@H]1C2CC(C2)N(C(=O)c2c(F)cccc2-n2nccn2)C1CNc1cnc(C(F)(F)F)cn1 (some centres unmarked) [Example 253] | 5 | 7.88 |
|  |  | Cc1ccc(-n2nccn2)c(C(=O)N2C3CC(C3)[C@@H](C)C2CNc2cnc(C(F)(F)F)cn2)c1 (some centres unmarked) [Example 254] | 5.12 | 8.37 |
|  |  | C[C@@H]1C2CC(C2)N(C(=O)c2cc(Cl)ccc2-n2nccn2)C1CNc1cnc(C2CC2)cn1 (some centres unmarked) [Example 257] | 5.41 | 7.58 |
|  |  | C[C@@H]1C2CC(C2)N(C(=O)c2cc(F)ccc2-n2nccn2)C1CNc1cnc(C2CC2)cn1 (some centres unmarked) [Example 258] | 5.35 | 7.07 |
|  |  | C[C@@H]1C2CC(C2)N(C(=O)c2cc(Cl)ccc2-n2nccn2)C1CNc1ncc(C2CC2)cn1 (some centres unmarked) [Example 259] | 5.32 | 7.66 |
|  |  | C[C@@H]1C2CC(C2)N(C(=O)c2cc(F)ccc2-n2nccn2)C1CNc1ncc(C2CC2)cn1 (some centres unmarked) [Example 260] | 4.89 | 7.45 |

| SMILES | pKi [1] | pKi [2] | OX2 pKi (SPA binding) [3] | OX1 pKi (SPA binding) [4] |
| --- | --- | --- | --- | --- |
| Cc1nc(C(=O)N2C(COc3ccc(F)cc3)CC3CC2C3)c(-c2ccccc2)s1 (single isomer, unassigned) [Example 3, (3S or 3R) 3-[(4-fluorophenoxy)methyl]-2-(2-methyl-5-phenyl-1,3-thiazole-4-carbonyl)-2-azabicyclo[3.1.1]heptane] | 7.09 | 8.63 |  |  |
